This is an account of results in US10030027B2, “Soluble guanylate cyclase stimulators” (MERCK SHARP & DOHME CORP., priority 2015, dated 2018).

For one assay, the target named is sGC α1/β1 heterodimer (Homo sapiens (Human), UniProt Q02108+Q02153). Description: Cell-based sGC functional assay (cyclic GMP assay for sGC activator: CASA assay). The conditions noted are these: CHO-K1/sGC cells; for Emax: CHO-K1, activity expressed as percentage of compound A (standard), read-out: % Activation; for EC50: inflection point, 4P fit, read-out: IP. The gist of the method:
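CHO-K1 cells stably expressing human sGC α1/β1 were pre-incubated 30 min at 25° C with or without 1 μM DETA-NO, then exposed to compound for 1 hr at 37° C with 0.5 mM IBMX and 2.5% DMSO final. Intracellular cGMP was measured by HTRF, expressed as % of reference sGC-HDA maximum; inflection point and maximum fold induction came from 4-parameter fits.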

Assay [1] addresses human recombinant sGC enzyme (Homo sapiens (Human), UniProt Q02108+Q02153). Description: Size Exclusion Chromatography (SEC) competition binding assay using [3H] Ex-77B as the radioligand. Particulars: [3H] Ex-77B radioligand, 24 hours at 37° C. The gist of the method:
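Recombinant human sGC binding measured by competition against tritiated Ex-77B radioligand, with non-specific binding defined by 1 μM unlabeled Ex-77B.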
On the technique in general: Size exclusion chromatography separates by hydrodynamic size, large species first.

Broadly, the Ki is a dissociation constant, usually derived from enzyme kinetics or from competition with a known ligand.

`CC(C)(Cc1csc([C@]2(C)C(=O)Nc3nc(-c4nn(Cc5c(F)ccc(F)c5F)c5cc(Cl)ccc45)nc(N)c32)n1)C(=O)O` [Example 190A, (S)-3-(2-{4-amino-2-[6-chloro-1-(2,3,6-trifluoro-benzyl)-1H-indazol-3-yl]-5-methyl-6-oxo-6,7-dihydro-5H-pyrrolo[2,3-d]pyrimidin-5-yl}-1,3-thiazol-4-yl)-2,2-dimethyl-propanoic acid]: at sGC α1/β1 heterodimer, the Emax amounted to 120% and the EC50 is 49 nM. The Ki in assay [1] was determined as 0.031 nM.
In the case of `CC1(c2ccc(CCS(=O)(=O)O)cc2)C(=O)Nc2nc(-c3nn(Cc4ccccc4F)c4cc(Cl)ccc34)nc(N)c21` (single isomer, unassigned) [Example 258B, 2-(4-{4-Amino-2-[6-chloro-1-(2-fluorobenzyl)-1H-indazol-3-yl]-5-methyl-6-oxo-6,7-dihydro-5H-pyrrolo[2,3-d]pyrimidin-5-yl}phenyl)ethanesulfonic acid], the EC50 at sGC α1/β1 heterodimer was determined as 1730 nM. The Ki in assay [1] was 0.08 nM.
Consider `C[C@@]1(c2ccc(CCC(=O)O)cc2)C(=O)Nc2nc(-c3nn(CCCC(F)(F)F)c4ncc(F)cc34)nc(N)c21` [Example 18B, (S)-3-(4-{4-amino-2-[5-fluoro-1-(4,4,4-trifluorobutyl)-1H-pyrazolo[3,4-b]pyridin-3-yl]-5-methyl-6-oxo-6,7-dihydro-5H-pyrrolo[2,3-d]pyrimidin-5-yl}phenyl)propanoic acid], for which, at sGC α1/β1 heterodimer, the Emax amounted to 95% and the EC50 came to 2500 nM. For the same molecule, in assay [1], the Ki amounted to 0.92 nM.
With `CC(C)(Cc1csc([C@]2(C)C(=O)Nc3nc(-c4nn(Cc5cccc(F)c5)c5cc(F)ccc45)nc(N)c32)n1)C(=O)O` [Example 194A, (S)-3-(2-{4-amino-2-[6-fluoro-1-(3-fluorobenzyl)-1H-indazol-3-yl]-5-methyl-6-oxo-6,7-dihydro-5H-pyrrolo[2,3-d]pyrimidin-5-yl}-1,3-thiazol-4-yl)-2,2-dimethyl-propanoic acid], on sGC α1/β1 heterodimer, the Emax was determined as 128% and the EC50 turned out to be 73 nM. For the same molecule, the Ki in assay [1] worked out at 0.041 nM.
Turning to `C[C@@]1(c2ccc(CCC(=O)O)cc2)C(=O)Nc2nc(-c3nn(CC4CCCC4)c4ccccc34)nc(N)c21` [Example 227B, (S)-3-(4-{4-amino-2-[1-(cyclopentyl-methyl)-1H-indazol-3-yl]-5-methyl-6-oxo-6,7-dihydro-5H-pyrrolo[2,3-d]pyrimidin-5-yl}phenyl)propanoic acid], at sGC α1/β1 heterodimer, the Emax turned out to be 63.5% and the EC50 is 74 nM. For the same molecule, in assay [1], the Ki was found to be 0.146 nM.
Take `CC1(c2ccc(CCc3nn[nH]n3)cn2)C(=O)Nc2nc(-c3nn(Cc4ccccc4F)c4ccccc34)nc(N)c21` (single isomer, unassigned) [Example 246A, 5-{5-[2-(2H-tetrazol-5-yl)ethyl]pyridin-2-yl}-4-amino-2-[1-(2-fluoro-benzyl)-1H-indazol-3-yl]-5-methyl-5,7-dihydro-6H-pyrrolo[2,3-d] pyrimidin-6-one]: the EC50 at sGC α1/β1 heterodimer is 7120 nM. Further, the Ki in assay [1] is 0.22 nM.
Turning to `CC(C)(Cc1coc(C2(C)C(=O)Nc3nc(-c4nn(CC5CCCCC5)c5ccccc45)nc(N)c32)n1)C(=O)O` (stereo not drawn) [Example 228A, 3-(2-{4-amino-2-[1-(cyclohexyl-methyl)-1H-indazol-3-yl]-5-methyl-6-oxo-6,7-dihydro-5H-pyrrolo[2,3-d]pyrimidin-5-yl}-1,3-oxazol-4-yl)-2,2-dimethyl-propanoic acid], at sGC α1/β1 heterodimer, the Emax was determined as 95% and the EC50 worked out at 64 nM. In assay [1], the Ki worked out at 0.079 nM.
On to `CC(C)(Cc1coc(C2(C)C(=O)Nc3nc(-c4nn(CC5CCCCO5)c5cc(F)ccc45)nc(N)c32)n1)C(=O)O` (single isomer, unassigned) [Example 134AA, 3-{2-[4-amino-2-{6-fluoro-1-[tetrahydro-2H-pyran-2-ylmethyl]-1H-indazol-3-yl}-5-methyl-6-oxo-6,7-dihydro-5H-pyrrolo[2,3-d]pyrimidin-5-yl]-1,3-oxazol-4-yl}-2,2-dimethylpropanoic acid], for which, on sGC α1/β1 heterodimer, the Emax was determined as 104% and the EC50 stood at 807 nM. For the same molecule, the inhibition constant (Ki) in assay [1] is 0.32 nM.
The corresponding values for `CC1(c2cccc(C(=O)O)c2)C(=O)Nc2nc(-c3nn(Cc4ccccc4F)c4cc(F)ccc34)nc(N)c21` (stereo not drawn) [Example 191B, 3-{4-amino-2-[6-fluoro-1-(2-fluorobenzyl)-1H-indazol-3-yl]-5-methyl-6-oxo-6,7-dihydro-5H-pyrrolo[2,3-d]pyrimidin-5-yl} benzoic acid] are 114%, 133 nM and 0.109 nM.
Take `CC(C)(Cc1csc([C@]2(C)C(=O)Nc3nc(-c4nn(CC5CCCCO5)c5ncccc45)nc(N)c32)n1)C(=O)O` (single isomer, unassigned) [Example 123AA]: on sGC α1/β1 heterodimer, the Emax stood at 79% and the EC50 came out at 880 nM. In addition, in assay [1], the Ki came to 1.23 nM.
Consider `Cc1ccc(Cn2nc(-c3nc(N)c4c(n3)NC(=O)[C@@]4(C)c3ccc(CCC(=O)O)cc3)c3ccc(Cl)cc32)cc1` [Example 67B, (S)-3-(4-{4-amino-2-[6-chloro-1-(4-methylbenzyl)-1H-indazol-3-yl]-5-methyl-6-oxo-6,7-dihydro-5H-pyrrolo[2,3-d]pyrimidin-5-yl}phenyl)propanoic acid], for which, on sGC α1/β1 heterodimer, the Emax came out at 115% and the EC50 worked out at 384 nM. The inhibition constant (Ki) in assay [1] amounted to 0.154 nM.
`CC1(c2nc(CC(=O)O)co2)C(=O)Nc2nc(-c3nn(Cc4ccccc4F)c4ccccc34)nc(N)c21` (stereo not drawn) [Example 203A, (2-{4-amino-2-[1-(2-fluorobenzyl)-1H-indazol-3-yl]-5-methyl-6-oxo-6,7-dihydro-5H-pyrrolo[2,3-d]pyrimidin-5-yl}-1,3-oxazol-4-yl)acetic acid]: at sGC α1/β1 heterodimer, the Emax is 122% and the EC50 was 330 nM. The Ki in assay [1] is 0.071 nM.
The matching figures for `C[C@@]1(c2ccc(CCC(=O)O)cc2)C(=O)Nc2nc(-c3nn(CCCC(F)(F)F)c4ncccc34)nc(N)c21` [Example 15B, (S)-3-(4-{4-amino-5-methyl-6-oxo-2-[1-(4,4,4-trifluorobutyl)-1H-pyrazolo[3,4-b]pyridin-3-yl]-6,7-dihydro-5H-pyrrolo[2,3-d]pyrimidin-5-yl}phenyl)propanoic acid]: 95%, 1320 nM and 0.455 nM.
`Cc1ccc2c(-c3nc(N)c4c(n3)NC(=O)[C@@]4(C)c3ccc(CCC(=O)O)cc3)nn(CCCC(F)(F)F)c2n1` [Example 20B, (S)-3-(4-{4-amino-5-methyl-2-[6-methyl-1-(4,4,4-trifluorobutyl)-1H-pyrazolo[3,4-b]pyridin-3-yl]-6-oxo-6,7-dihydro-5H-pyrrolo[2,3-d]pyrimidin-5-yl}phenyl)propanoic acid]: at sGC α1/β1 heterodimer, the Emax was found to be 88% and the EC50 was determined as 2210 nM. Besides, the inhibitory constant (Ki) in assay [1] was 4.49 nM.
Turning to `CC(C)(Cc1coc(C2(C)C(=O)Nc3nc(-c4nn(CC5CCCCO5)c5ccccc45)nc(N)c32)n1)C(=O)O` (single isomer, unassigned) [Example 230AA, 3-{2-[4-amino-5-methyl-6-oxo-2-{1-[tetrahydro-2H-pyran-2-ylmethyl]-1H-indazol-3-yl}-6,7-dihydro-5H-pyrrolo[2,3-d]pyrimidin-5-yl]-1,3-oxazol-4-yl}-2,2-dimethyl-propanoic acid], the EC50 at sGC α1/β1 heterodimer amounted to 821 nM. Further, in assay [1], the Ki was determined as 0.185 nM.
With `CC(C)(CCc1csc(C2(C)C(=O)Nc3nc(-c4nn(Cc5cccc(F)c5)c5cc(F)ccc45)nc(N)c32)n1)C(=O)O` (stereo not drawn) [Example 196A, 4-(2-{4-amino-2-[6-fluoro-1-(3-fluorobenzyl)-1H-indazol-3-yl]-5-methyl-6-oxo-6,7-dihydro-5H-pyrrolo[2,3-d]pyrimidin-5-yl}-1,3-thiazol-4-yl)-2,2-dimethyl-butanoic acid], at sGC α1/β1 heterodimer, the Emax stood at 90.3% and the EC50 was found to be 54 nM. The inhibition constant Ki in assay [1] turned out to be 0.468 nM.
For the molecule `C[C@@]1(c2ccc(CCc3nn[nH]n3)cc2)C(=O)Nc2nc(-c3nn(CCC(F)(F)C(F)(F)F)c4cc(Cl)ccc34)nc(N)c21` (single isomer, unassigned) [Example 237B], at sGC α1/β1 heterodimer, the Emax was found to be 93.3% and the EC50 stood at 5870 nM. In addition, the Ki in assay [1] was 0.193 nM.
The corresponding values for `CC1(c2ccc(OCC(=O)O)cc2)C(=O)Nc2nc(-c3nn(Cc4ccccc4F)c4cc(Cl)ccc34)nc(N)c21` (stereo not drawn) [Example 260A, (4-{4-Amino-2-[6-chloro-1-(2-fluorobenzyl)-1H-indazol-3-yl]-5-methyl-6-oxo-6,7-dihydro-5H-pyrrolo[2,3-d]pyrimidin-5-yl}phenoxy)acetic acid] are 136%, 125 nM and 0.058 nM.
The corresponding values for `CC(C)(Cc1coc(C2(C)C(=O)Nc3nc(-c4nn(Cc5cccc(F)c5F)c5cc(Cl)ccc45)nc(N)c32)n1)C(=O)O` (stereo not drawn) [Example 180A, 3-(2-{4-amino-2-[6-chloro-1-(2,3-difluorobenzyl)-1H-indazol-3-yl]-5-methyl-6-oxo-6,7-dihydro-5H-pyrrolo[2,3-d]pyrimidin-5-yl}-1,3-oxazol-4-yl)-2,2-dimethyl-propanoic acid] are 121%, 228 nM and 0.031 nM.
As to `CC1(c2ccc(CCC(=O)O)c(O)c2)C(=O)Nc2nc(-c3nn(CCC(F)(F)C(F)(F)F)c4cc(Cl)ccc34)nc(N)c21` (stereo not drawn) [Example 122B, 3-(4-{4-Amino-2-[6-chloro-1-(3,3,4,4,4-pentafluorobutyl)-1H-indazol-3-yl]-5-methyl-6-oxo-6,7-dihydro-5H-pyrrolo[2,3-d]pyrimidin-5-yl}-2-hydroxyphenyl)propanoic acid], on sGC α1/β1 heterodimer, the Emax was 115% and the EC50 turned out to be 895 nM. Further, in assay [1], the Ki turned out to be 0.326 nM.
